Measurements: patent publication US20250243171A1, “QUINAZOLINE COMPOUNDS FOR TREATMENT OF DISEASE” (Arthrosi Therapeutics, Inc., priority 2021, published 2025)

Legend:
Assay in all cases: EC50 assay: Ba/F3 stable cell proliferation (CCK-8, 72 h)
Type in all cases: cell-based
Ba/F3 stable cells [1] = target: T1, Ba/F3 stable cells (Homo sapiens, UniProt P00533, INS763FQEA, cells depend on it); details: Ba/F3-EGFR A763-Y764insFQEA cells
T1 construct: EC50 Ba/F3-EGFR A763-Y764insFQEA; other: Ba/F3-EGFR A763-Y764insFQEA cells, 72 h, CCK-8
Description: (§1) 4,000 Ba/F3 stable cells/90 μL/well were plated onto 96-well cell culture plate (Grenier, Cat.No. 655180) and incubated at 37° C. with a humidified atmosphere of 5% CO2 for 2 h. Then the cells were treated with 10 μL compounds at serial titration. The final DMSO concentration is 0.1%. The cells treated with 0.1% DMSO (Vetec, Cat.No.V900090) as a positive control (Max), and medium with 0.1% DMSO was as a negative control (Min). Incubated the cells at 37° C. for 72 h. 10 μL the cell proliferation reagent CCK-8 (Dojindo, Cat.No. CK04 1000T) was added into each well and incubated the plate at 37° C. for 4 hours, the GD value was measured by SPECTRAmax plus (Molecular Devices) at 450 nm. Data processing with Graphpad 7.0.

Ba/F3 stable cells [2] = target: T2, Ba/F3 stable cells (Homo sapiens, UniProt P00533, DUP767-769, cells depend on it); details: Ba/F3-EGFR V769-D770insASV cells
T2 construct: EC50 Ba/F3-EGFR V769-D770insASV; other: Ba/F3-EGFR V769-D770insASV cells, 72 h, CCK-8
T2 sequence (P00533 with tags, fused parts or gaps DUP767-769): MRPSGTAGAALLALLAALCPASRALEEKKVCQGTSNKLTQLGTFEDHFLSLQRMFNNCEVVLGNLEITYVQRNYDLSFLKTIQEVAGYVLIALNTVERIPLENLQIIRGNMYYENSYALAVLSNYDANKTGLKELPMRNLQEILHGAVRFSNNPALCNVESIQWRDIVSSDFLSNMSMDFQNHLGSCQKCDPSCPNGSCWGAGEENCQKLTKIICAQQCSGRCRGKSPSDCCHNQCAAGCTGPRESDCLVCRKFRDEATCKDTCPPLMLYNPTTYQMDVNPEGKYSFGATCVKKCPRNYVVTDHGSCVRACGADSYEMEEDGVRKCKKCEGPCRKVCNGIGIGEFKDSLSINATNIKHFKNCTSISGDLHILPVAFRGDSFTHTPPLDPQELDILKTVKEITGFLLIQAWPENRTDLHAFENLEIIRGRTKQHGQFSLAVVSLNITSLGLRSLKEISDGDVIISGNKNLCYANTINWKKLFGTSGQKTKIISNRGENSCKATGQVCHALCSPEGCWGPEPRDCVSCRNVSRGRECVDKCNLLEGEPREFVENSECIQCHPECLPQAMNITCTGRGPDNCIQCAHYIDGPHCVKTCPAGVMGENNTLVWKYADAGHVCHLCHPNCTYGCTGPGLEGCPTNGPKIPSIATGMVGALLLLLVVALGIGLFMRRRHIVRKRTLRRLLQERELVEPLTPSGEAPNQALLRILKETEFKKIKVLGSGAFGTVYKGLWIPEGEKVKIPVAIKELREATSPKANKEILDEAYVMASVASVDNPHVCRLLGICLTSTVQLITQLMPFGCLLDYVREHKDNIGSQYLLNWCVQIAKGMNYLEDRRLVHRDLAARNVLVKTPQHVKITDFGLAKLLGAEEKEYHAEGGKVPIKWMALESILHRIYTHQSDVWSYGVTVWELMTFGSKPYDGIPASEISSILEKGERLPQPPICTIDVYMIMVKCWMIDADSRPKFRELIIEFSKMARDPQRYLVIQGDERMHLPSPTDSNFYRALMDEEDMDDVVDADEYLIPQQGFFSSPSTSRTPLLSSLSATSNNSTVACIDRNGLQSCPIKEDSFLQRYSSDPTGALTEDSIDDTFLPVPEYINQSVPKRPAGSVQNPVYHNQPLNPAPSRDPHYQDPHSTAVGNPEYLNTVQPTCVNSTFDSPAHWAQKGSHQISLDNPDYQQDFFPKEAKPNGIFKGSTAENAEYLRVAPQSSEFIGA
Description: as §1

Ba/F3 stable cells [3] = target: T3, Ba/F3 stable cells (Homo sapiens, UniProt P00533, DUP768-770, cells depend on it); details: Ba/F3-EGFR D770-N771insSVD cells
T3 construct: EC50 Ba/F3-EGFR D770-N771insSVD; other: Ba/F3-EGFR D770-N771insSVD cells, 72 h, CCK-8
T3 sequence (P00533 with tags, fused parts or gaps DUP768-770): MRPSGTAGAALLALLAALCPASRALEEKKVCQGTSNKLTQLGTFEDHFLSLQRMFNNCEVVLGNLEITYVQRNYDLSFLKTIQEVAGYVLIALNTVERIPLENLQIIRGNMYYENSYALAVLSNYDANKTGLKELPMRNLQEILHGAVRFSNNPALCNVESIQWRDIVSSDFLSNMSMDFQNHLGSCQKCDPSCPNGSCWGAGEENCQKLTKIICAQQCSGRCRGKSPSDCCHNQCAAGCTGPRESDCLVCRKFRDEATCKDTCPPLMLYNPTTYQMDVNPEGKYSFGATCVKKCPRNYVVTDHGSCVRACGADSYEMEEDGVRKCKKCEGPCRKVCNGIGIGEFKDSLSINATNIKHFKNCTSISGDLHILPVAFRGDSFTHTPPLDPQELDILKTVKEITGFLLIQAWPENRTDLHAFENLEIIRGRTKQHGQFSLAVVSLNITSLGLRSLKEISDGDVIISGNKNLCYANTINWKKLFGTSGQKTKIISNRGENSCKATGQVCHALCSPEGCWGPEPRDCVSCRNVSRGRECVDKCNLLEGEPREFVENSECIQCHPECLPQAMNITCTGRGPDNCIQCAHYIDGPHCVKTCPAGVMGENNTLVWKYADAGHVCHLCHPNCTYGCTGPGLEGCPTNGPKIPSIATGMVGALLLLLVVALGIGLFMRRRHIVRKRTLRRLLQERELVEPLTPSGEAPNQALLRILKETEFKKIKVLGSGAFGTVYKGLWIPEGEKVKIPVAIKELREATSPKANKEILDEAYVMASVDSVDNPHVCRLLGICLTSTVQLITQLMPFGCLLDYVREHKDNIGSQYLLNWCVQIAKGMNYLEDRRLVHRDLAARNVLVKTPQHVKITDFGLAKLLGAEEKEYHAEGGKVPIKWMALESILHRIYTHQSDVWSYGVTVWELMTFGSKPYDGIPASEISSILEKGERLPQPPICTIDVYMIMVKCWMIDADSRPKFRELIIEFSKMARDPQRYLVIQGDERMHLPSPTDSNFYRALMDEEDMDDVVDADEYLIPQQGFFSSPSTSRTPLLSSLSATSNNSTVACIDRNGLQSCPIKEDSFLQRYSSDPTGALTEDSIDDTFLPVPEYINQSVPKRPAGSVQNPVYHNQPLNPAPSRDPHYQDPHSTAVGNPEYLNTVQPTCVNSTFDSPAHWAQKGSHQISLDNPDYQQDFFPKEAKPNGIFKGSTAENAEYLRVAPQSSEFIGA
Description: as §1

Ba/F3 stable cells [4] = target: T4, Ba/F3 stable cells (Homo sapiens, UniProt P00533, DUP771-773, cells depend on it); details: Ba/F3-EGFR H773-V774insNPH cells
T4 construct: EC50 Ba/F3-EGFR H773-V774insNPH; other: Ba/F3-EGFR H773-V774insNPH cells, 72 h, CCK-8
T4 sequence (P00533 with tags, fused parts or gaps DUP771-773): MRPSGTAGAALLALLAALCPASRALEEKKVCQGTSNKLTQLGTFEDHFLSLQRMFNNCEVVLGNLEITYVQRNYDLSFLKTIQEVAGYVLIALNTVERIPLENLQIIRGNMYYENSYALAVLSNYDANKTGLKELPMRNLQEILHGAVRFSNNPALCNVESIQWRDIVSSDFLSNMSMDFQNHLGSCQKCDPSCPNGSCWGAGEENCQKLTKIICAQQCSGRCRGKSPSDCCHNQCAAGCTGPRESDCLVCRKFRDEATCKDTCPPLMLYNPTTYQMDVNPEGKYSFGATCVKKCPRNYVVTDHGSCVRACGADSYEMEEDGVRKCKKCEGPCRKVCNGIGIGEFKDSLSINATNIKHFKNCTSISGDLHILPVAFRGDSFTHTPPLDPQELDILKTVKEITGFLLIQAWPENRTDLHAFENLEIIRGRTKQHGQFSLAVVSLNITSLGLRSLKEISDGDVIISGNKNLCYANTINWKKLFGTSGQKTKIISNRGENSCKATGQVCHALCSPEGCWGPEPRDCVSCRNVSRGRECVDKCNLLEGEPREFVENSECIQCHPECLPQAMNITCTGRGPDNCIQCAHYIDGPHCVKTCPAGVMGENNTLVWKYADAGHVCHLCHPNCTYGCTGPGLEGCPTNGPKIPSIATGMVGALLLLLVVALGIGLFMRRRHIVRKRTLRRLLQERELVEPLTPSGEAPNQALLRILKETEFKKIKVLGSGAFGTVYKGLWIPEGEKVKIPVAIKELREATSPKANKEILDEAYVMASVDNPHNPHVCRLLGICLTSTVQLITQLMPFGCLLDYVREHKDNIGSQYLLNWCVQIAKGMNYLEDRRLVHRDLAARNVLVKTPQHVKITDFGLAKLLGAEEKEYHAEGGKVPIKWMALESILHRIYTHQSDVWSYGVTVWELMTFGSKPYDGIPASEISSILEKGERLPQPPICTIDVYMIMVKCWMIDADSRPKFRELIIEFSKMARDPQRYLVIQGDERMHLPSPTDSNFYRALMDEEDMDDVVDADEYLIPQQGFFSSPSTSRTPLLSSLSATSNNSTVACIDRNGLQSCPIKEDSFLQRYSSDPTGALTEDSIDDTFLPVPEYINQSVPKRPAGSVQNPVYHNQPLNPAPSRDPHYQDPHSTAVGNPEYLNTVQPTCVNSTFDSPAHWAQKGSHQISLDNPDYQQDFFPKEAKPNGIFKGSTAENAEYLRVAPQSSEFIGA
Description: as §1

Ba/F3 stable cells [5] = target: T5, Ba/F3 stable cells (Homo sapiens, UniProt P00533, T790M/L858R, cells depend on it); details: Ba/F3-EGFR L858R-T790M cells
T5 construct: EC50 Ba/F3-EGFR L858R-T790M; other: Ba/F3-EGFR L858R-T790M cells, 72 h, CCK-8
T5 sequence (P00533 whole entry T790M/L858R): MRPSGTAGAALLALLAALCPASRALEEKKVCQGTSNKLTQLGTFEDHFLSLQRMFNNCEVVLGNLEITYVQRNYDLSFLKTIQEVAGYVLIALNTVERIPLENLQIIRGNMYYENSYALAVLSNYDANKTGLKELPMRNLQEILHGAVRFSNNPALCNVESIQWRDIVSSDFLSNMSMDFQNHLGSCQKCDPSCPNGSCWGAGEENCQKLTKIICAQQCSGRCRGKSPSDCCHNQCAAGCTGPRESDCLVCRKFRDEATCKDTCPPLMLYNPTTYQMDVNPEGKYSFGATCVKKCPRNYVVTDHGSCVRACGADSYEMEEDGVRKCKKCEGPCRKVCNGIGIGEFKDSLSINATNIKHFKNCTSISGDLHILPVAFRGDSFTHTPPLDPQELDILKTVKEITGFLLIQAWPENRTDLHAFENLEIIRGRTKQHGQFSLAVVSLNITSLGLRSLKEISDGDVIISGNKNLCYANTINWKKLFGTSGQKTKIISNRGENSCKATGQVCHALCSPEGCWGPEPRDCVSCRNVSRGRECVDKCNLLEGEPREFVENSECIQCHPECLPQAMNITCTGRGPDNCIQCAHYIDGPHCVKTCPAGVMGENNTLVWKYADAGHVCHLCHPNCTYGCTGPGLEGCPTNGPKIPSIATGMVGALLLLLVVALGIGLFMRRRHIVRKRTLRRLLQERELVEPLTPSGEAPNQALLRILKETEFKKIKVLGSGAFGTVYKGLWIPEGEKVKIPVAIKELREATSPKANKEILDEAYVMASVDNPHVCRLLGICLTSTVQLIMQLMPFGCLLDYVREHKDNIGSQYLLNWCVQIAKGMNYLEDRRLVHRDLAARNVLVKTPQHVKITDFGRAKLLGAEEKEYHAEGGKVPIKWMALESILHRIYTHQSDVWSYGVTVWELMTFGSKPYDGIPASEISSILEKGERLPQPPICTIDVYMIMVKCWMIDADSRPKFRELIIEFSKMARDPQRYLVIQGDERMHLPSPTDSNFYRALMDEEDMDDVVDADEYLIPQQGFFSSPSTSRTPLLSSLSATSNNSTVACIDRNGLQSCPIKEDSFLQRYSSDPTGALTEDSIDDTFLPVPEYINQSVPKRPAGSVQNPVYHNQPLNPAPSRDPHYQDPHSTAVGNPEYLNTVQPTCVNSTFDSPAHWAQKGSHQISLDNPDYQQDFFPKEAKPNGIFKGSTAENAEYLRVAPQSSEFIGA
Description: as §1

Ba/F3 stable cells [6] = target: T6, Ba/F3 stable cells (Homo sapiens, UniProt P04626, DUP772-775, cells depend on it); details: Ba/F3-HER2 A775-G776insYVMA cells
T6 construct: EC50 Ba/F3-HER2 A775-G776insYVMA; other: Ba/F3-HER2 A775-G776insYVMA cells, 72 h, CCK-8
Description: as §1

Row | EC50 (Ba/F3 stable cells [1]) [nM] | EC50 (Ba/F3 stable cells [2]) [nM] | EC50 (Ba/F3 stable cells [3]) [nM] | EC50 (Ba/F3 stable cells [4]) [nM] | EC50 (Ba/F3 stable cells [5]) [nM] | EC50 (Ba/F3 stable cells [6]) [nM] | Structure (SMILES)
1 | ≤ 200 | ≤ 200 | ≤ 200 | ≤ 200 | 200 to 1000 | ≤ 200 | C=CC(=O)N1CCC(c2cc3c(Nc4ccc(Cl)c(Cl)c4F)ncnc3cc2OC)C1 (centres unmarked) [Compound 3, 1-(3-(4-((3,4-dichloro-2-fluorophenyl)amino)-7-methoxyquinazolin-6-yl)pyrrolidin-1-yl)prop-2-en-1-one]
2 | ≤ 200 | ≤ 200 | 200 to 1000 | ≤ 200 | 200 to 1000 | ≤ 200 | C=CC(=O)N1CC(c2cc3c(Nc4ccc(F)c(Cl)c4)ncnc3cc2OC)C1 [Compound 6, 1-(3-(4-((3-chloro-4-fluorophenyl)amino)-7-methoxyquinazolin-6-yl)azetidin-1-yl)prop-2-en-1-one]
3 | ≤ 200 | ≤ 200 | 200 to 1000 | 200 to 1000 | > 1000 | 200 to 1000 | C=CC(=O)N1CCC(c2cc3c(Nc4ccc(Cl)c(Cl)c4F)ncnc3cc2OC)CC1 [Compound 10, 1-(4-(4-((3,4-dichloro-2-fluorophenyl)amino)-7-methoxyquinazolin-6-yl)piperidin-1-yl)prop-2-en-1-one]
4 | ≤ 200 | ≤ 200 | 200 to 1000 | ≤ 200 | > 1000 | 200 to 1000 | C=CC(=O)N1CC(c2cc3c(Nc4ccc5[nH]ccc5c4)ncnc3cc2OC)C1 [Compound 11, 1-(3-(4-((1H-indol-5-yl)amino)-7-methoxyquinazolin-6-yl)azetidin-1-yl)prop-2-en-1-one]
5 | ≤ 200 | 200 to 1000 | > 1000 | 200 to 1000 | > 1000 | > 1000 | C=CC(=O)N1CC(c2cc3c(NCc4ccc(F)cc4)ncnc3cc2OC)C1 [Compound 13, 1-(3-(4-((4-fluorobenzyl)amino)-7-methoxyquinazolin-6-yl)azetidin-1-yl)prop-2-en-1-one]
6 | ≤ 200 | ≤ 200 | ≤ 200 | ≤ 200 | ≤ 200 | ≤ 200 | C=CC(=O)N1CC(c2cc3c(Nc4ccc(Cl)c(Cl)c4F)ncnc3cc2OCC)C1 [Compound 18, 1-(3-(4-((3,4-dichloro-2-fluorophenyl)amino)-7-ethoxyquinazolin-6-yl)azetidin-1-yl)prop-2-en-1-one]
7 | ≤ 200 | ≤ 200 | ≤ 200 | ≤ 200 | ≤ 200 | ≤ 200 | C=CC(=O)N1CC(c2cc3c(Nc4ccc(Cl)c(Cl)c4F)ncnc3cc2OCCO)C1 [Compound 19, 1-(3-(4-((3,4-dichloro-2-fluorophenyl)amino)-7-(2-hydroxyethoxy)quinazolin-6-yl)azetidin-1-yl)prop-2-en-1-one]
8 | 200 to 1000 | – | – | – | – | – | C=CC(=O)N1CC(c2cc3c(Nc4ccc(Cl)c(Cl)c4F)ncnc3cc2O[C@H]2CCOC2)C1 [Compound 24, (S)-1-(3-(4-((3,4-dichloro-2-fluorophenyl)amino)-7-((tetrahydrofuran-3-yl)oxy)quinazolin-6-yl)azetidin-1-yl)prop-2-en-1-one]

Continued, molecule first:

Row | Structure (SMILES) | EC50 (Ba/F3 stable cells [1]) [nM] | EC50 (Ba/F3 stable cells [2]) [nM] | EC50 (Ba/F3 stable cells [3]) [nM] | EC50 (Ba/F3 stable cells [4]) [nM] | EC50 (Ba/F3 stable cells [5]) [nM] | EC50 (Ba/F3 stable cells [6]) [nM]
9 | C=CC(=O)N1CC(c2cc3c(Nc4ccc(Cl)c(Cl)c4F)ncnc3cc2OC)C1 [Compound 1, 1-(3-(4-((3,4-dichloro-2-fluorophenyl)amino)-7-methoxyquinazolin-6-yl)azetidin-1-yl)prop-2-en-1-one] | ≤ 200 | ≤ 200 | ≤ 200 | ≤ 200 | ≤ 200 | ≤ 200
10 | C=CC(=O)N1CC(c2cc3c(Nc4ccc(OCc5ccccc5)c(Cl)c4F)ncnc3cc2OC)C1 [Compound 2, 1-(3-(4-((4-(benzyloxy)-3-chloro-2-fluorophenyl)amino)-7-methoxyquinazolin-6-yl)azetidin-1-yl)prop-2-en-1-one] | > 1000 | > 1000 | > 1000 | > 1000 | > 1000 | > 1000
11 | C=CC(=O)N1CC(c2cc3c(Nc4cccc5ccccc45)ncnc3cc2OC)C1 [Compound 4, 1-(3-(7-methoxy-4-(naphthalen-1-ylamino)quinazolin-6-yl)azetidin-1-yl)prop-2-en-1-one] | ≤ 200 | ≤ 200 | 200 to 1000 | ≤ 200 | 200 to 1000 | ≤ 200
12 | C=CC(=O)N1CC(c2cc3c(Nc4ccc5ccccc5c4)ncnc3cc2OC)C1 [Compound 5, 1-(3-(7-methoxy-4-(naphthalen-2-ylamino)quinazolin-6-yl)azetidin-1-yl)prop-2-en-1-one] | ≤ 200 | ≤ 200 | 200 to 1000 | 200 to 1000 | 200 to 1000 | 200 to 1000
13 | C=CC(=O)N1CC(c2cc3c(Nc4ccc(Cl)c5ccccc45)ncnc3cc2OC)C1 [Compound 7, 1-(3-(4-((4-chloronaphthalen-1-yl)amino)-7-methoxyquinazolin-6-yl)azetidin-1-yl)prop-2-en-1-one] | ≤ 200 | 200 to 1000 | > 1000 | 200 to 1000 | ≤ 200 | > 1000
14 | C=CC(=O)N1CC(c2ccc3ncnc(Nc4ccc(Cl)c(Cl)c4F)c3c2)C1 [Compound 8, 1-(3-(4-((3,4-dichloro-2-fluorophenyl)amino)quinazolin-6-yl)azetidin-1-yl)prop-2-en-1-one] | ≤ 200 | 200 to 1000 | 200 to 1000 | 200 to 1000 | > 1000 | 200 to 1000
15 | C=CC(=O)N1CCC(c2ccc3ncnc(Nc4ccc(Cl)c(Cl)c4F)c3c2)CC1 [Compound 9, 1-(4-(4-((3,4-dichloro-2-fluorophenyl)amino)quinazolin-6-yl)piperidin-1-yl)prop-2-en-1-one] | ≤ 200 | > 1000 | > 1000 | > 1000 | > 1000 | 200 to 1000
16 | C=CC(=O)N1CC(c2cc3c(Nc4ccc5c(c4)CCN5)ncnc3cc2OC)C1 [Compound 12, 1-(3-(4-(indolin-5-ylamino)-7-methoxyquinazolin-6-yl)azetidin-1-yl)prop-2-en-1-one] | > 1000 | > 1000 | > 1000 | > 1000 | > 1000 | > 1000
17 | C=CC(=O)N1CC(c2cc3c(Nc4ccc(F)c5ccccc45)ncnc3cc2OC)C1 [Compound 14, 1-(3-(4-((4-fluoronaphthalen-1-yl)amino)-7-methoxyquinazolin-6-yl)azetidin-1-yl)prop-2-en-1-one] | ≤ 200 | ≤ 200 | > 1000 | ≤ 200 | ≤ 200 | > 1000
18 | C=CC(=O)N1CC(c2cc3c(NCc4cccc(Cl)c4)ncnc3cc2OC)C1 [Compound 15, 1-(3-(4-((3-chlorobenzyl)amino)-7-methoxyquinazolin-6-yl)azetidin-1-yl)prop-2-en-1-one] | ≤ 200 | ≤ 200 | 200 to 1000 | 200 to 1000 | 200 to 1000 | > 1000
19 | C=CC(=O)N1CC(c2cc3c(Nc4ccc(F)c(Cl)c4F)ncnc3cc2OC)C1 [Compound 16, 1-(3-(4-((3-chloro-2,4-difluorophenyl)amino)-7-methoxyquinazolin-6-yl)azetidin-1-yl)prop-2-en-1-one] | ≤ 200 | ≤ 200 | ≤ 200 | ≤ 200 | ≤ 200 | ≤ 200
20 | C=CC(=O)N1CC(c2cc3c(Nc4ccc(Cl)c(Cl)c4F)ncnc3cc2OCCOC)C1 [Compound 17, 1-(3-(4-((3,4-dichloro-2-fluorophenyl)amino)-7-(2-methoxyethoxy)quinazolin-6-yl)azetidin-1-yl)prop-2-en-1-one] | ≤ 200 | ≤ 200 | ≤ 200 | ≤ 200 | ≤ 200 | ≤ 200
21 | C=CC(=O)N1CCC(Oc2cc3c(Nc4ccc(Cl)c(Cl)c4F)ncnc3cc2OC)CC1 [Compound 133, 1-(4-((4-((3,4-dichloro-2-fluorophenyl)amino)-7-methoxyquinazolin-6-yl)oxy)piperidin-1-yl)prop-2-en-1-one] | – | – | – | – | – | ≤ 200
